From patent US8357350B2, “Annulus fibrosus detection in intervertebral discs using molecular imaging agents” (General Electric Company, priority 2009, dated 2013) come the findings set out here.

Assay [1] concerns intervertebral discs (annulus fibrosus). The assay is described as follows: Intraoperative imaging of the spine in a pig. It is filed as in vivo, Yorkshire pig. The following applies: 0.47 mg/kg IV, 5 h. On the procedure:
Imaging was carried out at near infrared wavelenghts using a 400- to 700-nm “white” light (0.5 mW/cm^2) and a 725- to 775-nm NIR fluorescence excitation light (5 mW/cm^2). Fluorescence images were collected using exposure times ranging from 500 to 2000 msec. All images collected for comparison between vehicle-injected control animals and FM fluorophore-injected animals had the same exposure time and normalization. Color video images were collected on a separate optical channel using custom designed software. The excitation and emission LEDs and filter used for the FM fluorophores and Pam800 in the intraoperative imaging system are described as follows. For fluorescence excitation of FM 1-43, FM 2-10, FM 1-43FX and Formula IA, sixty 5-mm 470 nm LEDs ([…], Inc., Kyoto, Japan) fitted with 470±20 nm band pass (BP) excitation filters (Chroma Technology, Rockingham, Vt.) in custom holders were used, which produced a fluence rate on the imaging surface of 0.56 mW/cm^2. For fluorescence excitation of Formula II, FM 4-64, FM 4-64FX and FM 5-95, sixty 5-mm 535 nm LEDs fitted with 525±25 nm BP excitation filters were used, which produced a fluence rate on the imaging surface of 0.34 mW/cm^2. A 610±38 nm BP filter was used to detect fluorescence emission of FM 1-43, FM 2-10, Formula II, FM 1-43FX and Formula IA. To detect fluorescence emission of FM 4-64, FM 4-64FX and FM 5-95 a 720 nm long pass (LP) filter was used. For fluorescence excitation of Pam800, 348 5-mm 760 nm LEDs fitted with 764±17 nm BP excitation filters were used, which produced a fluence rate on the imaging surface of 8.73 mW/cm^2 and fluorescence emission was detected using a 824±24 nm BP emission filter. FORMULA IA was also evaluated in a Yorkshire pig. […] The pig was monitored under anesthesia during the drug incubation period, after which the animal was sacrificed. […] Tissues from mice, rats and pig were preserved for microscopic assessment and localization of fluorescence signal. […] Exposure times were adjusted between 5 and 2000 ms for fluorescence images.

In the next assay the test system is trigeminal ganglia. As to the kind of experiment: FM fluorophore uptake, intraoperative fluorescence imaging. In kind it is in vivo, mice and rats. The following applies: 5 mg/kg mice, 0.5 mg/kg rats IP, 16 hours before imaging; signal normalized to muscle, vs vehicle control. On the procedure: (§1) Imaging was carried out at near infrared wavelenghts using a 400- to 700-nm “white” light (0.5 mW/cm^2) and a 725- to 775-nm NIR fluorescence excitation light (5 mW/cm^2). Fluorescence images were collected using exposure times ranging from 500 to 2000 msec. All images collected for comparison between vehicle-injected control animals and FM fluorophore-injected animals had the same exposure time and normalization. Color video images were collected on a separate optical channel using custom designed software. The excitation and emission LEDs and filter used for the FM fluorophores and Pam800 in the intraoperative imaging system are described as follows. For fluorescence excitation of FM 1-43, FM 2-10, FM 1-43FX and Formula IA, sixty 5-mm 470 nm LEDs ([…], Inc., Kyoto, Japan) fitted with 470±20 nm band pass (BP) excitation filters (Chroma Technology, Rockingham, Vt.) in custom holders were used, which produced a fluence rate on the imaging surface of 0.56 mW/cm^2. For fluorescence excitation of Formula II, FM 4-64, FM 4-64FX and FM 5-95, sixty 5-mm 535 nm LEDs fitted with 525±25 nm BP excitation filters were used, which produced a fluence rate on the imaging surface of 0.34 mW/cm^2. A 610±38 nm BP filter was used to detect fluorescence emission of FM 1-43, FM 2-10, Formula II, FM 1-43FX and Formula IA. To detect fluorescence emission of FM 4-64, FM 4-64FX and FM 5-95 a 720 nm long pass (LP) filter was used. For fluorescence excitation of Pam800, 348 5-mm 760 nm LEDs fitted with 764±17 nm BP excitation filters were used, which produced a fluence rate on the imaging surface of 8.73 mW/cm^2 and fluorescence emission was detected using a 824±24 nm BP emission filter. To assess the structure-activity relationship of the FM fluorophores, each molecule was administered at 5 mg/kg to mice and 0.5 mg/kg to rats (n=4 per group) in 10% DMSO and 90% PBS IP 16 hours before imaging with the intraoperative system. The fluorescence signal from the spinal cord, intervertebral discs, dorsal root ganglia, trigeminal ganglia, optic nerve, brain and femoral nerve were normalized to muscle signal in the same image. This normalization ratio was then compared between FM fluorophore-injected animals and vehicle-injected control animals.

For the next assay, the system named is dorsal root ganglia. The description is as above. It is filed as in vivo, mice and rats. The note with it: 5 mg/kg mice, 0.5 mg/kg rats IP, 16 hours before imaging; signal normalized to muscle, vs vehicle control. On the procedure: as §1
The test system of another assay is intervertebral discs. Described as above. It is filed as in vivo, mice and rats. On the procedure:
as §1
For Uptake: Dorsal Root Ganglia in this document: key: +: Positive contrast was concluded if the nerve-to-muscle contrast ratio of FM fluorophore-injected animals was elevated relative to control animals.
For Uptake: Intervertebral Disc in this document: key: +: Positive contrast was concluded if the nerve-to-muscle contrast ratio of FM fluorophore-injected animals was elevated relative to control animals.
For Uptake: Trigeminal Ganglia in this document: key: +: Positive contrast was concluded if the nerve-to-muscle contrast ratio of FM fluorophore-injected animals was elevated relative to control animals.

Regarding `CCCCN(CCCC)c1ccc(/C=C/c2cc[n+](CCC[N+](C)(C)C)cc2)cc1.[Br-].[Br-]` [Formula IA, (E)-4-(4-(dibutylamino)styryl)-1-(3-(trimethylammonio)propyl)pyridinium dibromide], in assay [1], the “contrast in the intervertebral discs of the pig” value is “dramatic positive contrast”; the “origin of signal within the disc (sagittal and axial sectioning)” value was “majority of the signal was emanating from the annulus fibrosus, and not the nucleus pulposus”. Also, the “microscopic fluorescence pattern in disc sections” value in assay [1] (fluorescence microscopy vs H&E) was “punctate and linear following the lamellae structures of the annulus fibrosus”. Further, the “Uptake: Trigeminal Ganglia” value in the assay with trigeminal ganglia is on record as “+”. Moreover, in the assay on dorsal root ganglia, the “Uptake: Dorsal Root Ganglia” value is “+”. Also, the “Uptake: Intervertebral Disc” value in the assay on intervertebral discs (5 mg/kg mice, 0.5 mg/kg rats IP, 16 hours before imaging, signal normalized to muscle, vs vehicle control) is reported as “+”. The “contrast in the intervertebral discs” value in the assay with intervertebral discs (IP administration to mice and rats) is recorded as “positive contrast”.
